One assay has as its system 320 non-olfactory GPCRs. Format: cell-based. More on the design: GPCRome screening signal at PTGIR / GPCRome screening signal at PTH1R / GPCRome screening signal at PTH2R / GPCRome screening signal at QRFP / GPCRome screening signal at RXFP2 / GPCRome screening signal at RXFP3 / GPCRome screening signal at RXFP4 / GPCRome screening signal at S1PR2 / GPCRome screening signal at S1PR3 / GPCRome screening signal at S1PR4 / GPCRome screening signal at S1PR5 / GPCRome screening signal at SCTR / GPCRome screening signal at SSTR2 / GPCRome screening signal at SSSTR / GPCRome screening signal at SSTR4 / GPCRome screening signal at SSTR5 / GPCRome screening signal at SUCNR1 / GPCRome screening signal at TA1 / GPCRome screening signal at TAAR2 / GPCRome screening signal at TAAR5 / GPCRome screening signal at TAAR6 / GPCRome screening signal at TAAR8 / GPCRome screening signal at TACR1 / GPCRome screening signal at TACR2 / GPCRome screening signal at TACR3 / GPCRome screening signal at TBXA2R / GPCRome screening signal at TSHR / GPCRome screening signal at UTS2R / GPCRome screening signal at VIPR2 / GPCRome screening signal at GPR68 no V2 Tail / GPCRome screening signal at GRM2 / GPCRome screening signal at GRM3: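 fold over basal response of each receptor without drug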. As to conditions: for GPCRome agonism screen response: replicate values, Fig_4g.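 For GPCRome agonism screen response: fold over basal response of each receptor without drug.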

A further assay deals with DRD3 F1063.28A (Homo sapiens, UniProt P35462, F106A). In words: biochemical. Format: binding.
A further assay has as its target T1, DRD2 F1103.28L (Homo sapiens, UniProt P14416, F110L).
T1 construct: expressed in transfected cells; host or cells: HEK293T (ATCC CRL-11268)
Put plainly: β-arrestin2 recruitment (Tango), mutant. It counts as cell-based. A general note: Activated receptors often draw arrestin, which recruitment assays turn into a signal.

The target of assay [1] is T2, DRD2 F1103.28A (Homo sapiens, UniProt P14416, F110A). It counts as binding. More on the design: expressed in transfected cells; host or cells: HEK293T (ATCC CRL-11268).
The target in assay [2] is T2, DRD2 F1103.28A. Put plainly: Gαi/o-mediated cAMP inhibition (GloSensor), mutant. Format: cell-based. More on the design: expressed in transfected cells; host or cells: HEK293T (ATCC CRL-11268).

Experimental findings from article PMC7044277 (Nature Communications, 2020) are described below.

pEC50, pKi: −log10 of the molar value. “And” between values parts separate entries of the source, which are not always exact repeats. Identical values can stand only once. Like-named read-outs stand apart in the source and are kept apart here.

T2 sequence (P14416 whole entry F110A): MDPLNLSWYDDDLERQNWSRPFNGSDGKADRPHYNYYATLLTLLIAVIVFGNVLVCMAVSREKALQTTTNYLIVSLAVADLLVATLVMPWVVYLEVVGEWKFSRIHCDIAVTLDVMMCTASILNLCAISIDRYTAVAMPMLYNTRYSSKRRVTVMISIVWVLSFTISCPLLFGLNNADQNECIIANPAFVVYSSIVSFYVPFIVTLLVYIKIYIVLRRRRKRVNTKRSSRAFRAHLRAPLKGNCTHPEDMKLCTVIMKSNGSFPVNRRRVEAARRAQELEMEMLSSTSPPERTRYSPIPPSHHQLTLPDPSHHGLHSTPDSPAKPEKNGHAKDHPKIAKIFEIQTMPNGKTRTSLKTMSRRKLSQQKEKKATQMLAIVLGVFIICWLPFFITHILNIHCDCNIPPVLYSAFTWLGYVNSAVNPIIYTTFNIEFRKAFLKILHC
T1 sequence (P14416 whole entry F110L): as the sequence (P14416 whole entry F110A) above, with A110L counted along it
Chain of DRD3 F1063.28A (P35462 whole entry F106A): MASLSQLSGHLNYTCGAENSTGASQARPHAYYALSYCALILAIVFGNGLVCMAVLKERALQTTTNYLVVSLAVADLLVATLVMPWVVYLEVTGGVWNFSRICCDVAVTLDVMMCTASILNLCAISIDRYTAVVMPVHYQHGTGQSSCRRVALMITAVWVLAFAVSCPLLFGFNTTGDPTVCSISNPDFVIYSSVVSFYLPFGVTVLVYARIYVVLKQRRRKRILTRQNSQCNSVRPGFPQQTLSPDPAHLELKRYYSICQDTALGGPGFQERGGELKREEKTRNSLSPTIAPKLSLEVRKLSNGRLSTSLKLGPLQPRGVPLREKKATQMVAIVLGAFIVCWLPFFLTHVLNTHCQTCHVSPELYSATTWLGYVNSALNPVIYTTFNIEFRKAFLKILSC

For the compound `CCOc1ccccc1CCC(C)NCC1(O)CCCCC1.Cl` (racemic) [Fig_5f], in the assay with 320 non-olfactory GPCRs (receptor GPR68 no V2 Tail, Fig_5f, single replicate values), the “GPCRome screening signal at GPR68 no V2 Tail” value is 1.613 and 0.9285 and 0.7993 and 0.365. Besides, the “GPCRome screening signal at QRFP” value in the assay on 320 non-olfactory GPCRs (receptor QRFP, Fig_5f, single replicate values) was 1.818 and 1.297 and 0.5847 and 0.9504. Moreover, the “GPCRome screening signal at SSSTR” value in the assay on 320 non-olfactory GPCRs (receptor SSSTR, Fig_5f, single replicate values) was 1.07 and 0.3317 and 0.4095 and 0.9006.

Usually pKi stands for the Ki on a negative log10 scale, so that one unit is a factor of ten. Usually pEC50 stands for the EC50 on a negative log10 scale, so that one unit is a factor of ten. What is called Emax is the size of the effect at its maximum, as opposed to the concentration needed. Consider `CCOc1cccc2cc(C(C)NCC3(O)CCCCC3)oc12` (stereo not shown) [O4LE6], for which the pKi at DRD3 F1063.28A was 6.34; at DRD2 F1103.28A [1] (DRD2 F1103.28A, read-out: Ki), 6.14. Also, at DRD3 F1063.28A (DRD3 Phe106^3.28Ala vs wild-type DRD3), the “affinity decreased, mutant vs wild type” value is reported as 2.09 fold. Besides, the pEC50 is 6.69 at DRD2 F1103.28L and below 5.00 on DRD2 F1103.28A [2]. For the same compound, the maximal effect (Emax) at DRD2 F1103.28L (read-out: Emax relative to quinpirole response) stood at 4.32%. For the same compound, the “GPCRome agonism screen response” value in the assay on 320 non-olfactory GPCRs (receptor LTB4R2B) is 0.6938 and 0.9232 and 0.5075; in the assay on 320 non-olfactory GPCRs (receptor NPS), 0.4686 and 1.378 and 0.7119 and 0.6607; in the assay on 320 non-olfactory GPCRs (receptor PK1) it was 0.8997 and 0.9125 and 0.8846 and 0.857; with 320 non-olfactory GPCRs (receptor PRRP), 0.431 and 1.1359 and 1.866 and 0.5549; with 320 non-olfactory GPCRs (receptor QRFP) it was 0.8017 and 1.022 and 0.9768 and 1; in the assay with 320 non-olfactory GPCRs (receptor SSSTR) it was 0.8501 and 0.9752 and 2.465 and 0.6314. Moreover, the “affinity increase (binding enhanced), mutant vs wild type” value on DRD2 F1103.28A [1] (DRD2 Phe110^3.28Ala vs wild-type DRD2) was 2.64 fold.
